The results in this text go back to patent US20080090254A1, “Method for assessing proliferation inhibiting effect of inhibitor, and method for determining sensitivity of tumor cell to inhibitor” (SYSMEX CORPORATION, priority 2006, published 2008).

Test [1] relates to receptor tyrosine kinase group derived from a cell membrane of MDA-MB468. The test is described as follows: activity of receptor tyrosine kinase group, sample for reaction MB468 (ELISA, GST-poly(Glu, Tyr) substrate). The conditions noted are these: for effect of inhibiting the activity of a receptor tyrosine kinase group, inhibitor combined with 4557W: Example 2, FIG. 6, 400 μM inhibitor combined with 400 μM 4557W; for effect of inhibiting the activity of a receptor tyrosine kinase group, inhibitor alone: Example 2, FIG. 6, treating solution containing 400 μM inhibitor alone; for inhibition of the activity of the receptor tyrosine kinase group: Example 1, FIG. 3, treating solution containing 400 μM inhibitor, versus sample not treated = 100%. Format: biochemical. How it is done: (§1) From five kinds of cultured cells (MDA-MB453, MDA-MB468, SKBr3, Hela and HT29), a sample for reaction was prepared. Specifically, the cultured cell and 1 ml of a cell treating solution (containing 20 mM HEPES pH7.4, 0.2% PI, 10% glycerol, 200 μM Na3VO4, and 50 mM NaF) were mixed. By pressing using a pestle, a cell membrane of the resulting mixed solution was destructed to prepare a cell solution. The resulting cell solution was centrifuged, a supernatant was discarded, and a precipitate was recovered. The recovered precipitate and a cell membrane solubilizing solution (containing 20 mM HEPES pH7.4, 1% NP40, 0.2% PI, 10% glycerol, 200 μM Na3VO4, and 50 mM NaF) were mixed. A cell membrane in the mixed solution obtained by pressing using a pestle was solubilized, and centrifuged to recover a supernatant. This supernatant was used as a sample for reaction. MDA-MB453 is a cultured cell derived from a breast cancer, and a sample for reaction prepared from this cell is designated as sample for reaction MB453. MDA-MB468 is a cultured cell derived from a breast cancer, and a sample for reaction prepared from this cell is designated as sample for reaction MB468. SKBr3 is a cultured cell derived from a breast cancer, and a sample for reaction prepared from this cell is designated as sample for reaction SKBr3. Hela is a cultured cell derived from a uterine cervical cancer, and a sample for reaction prepared from this cell is designated sample for reaction Hela. HT29 is a cultured cell derived from a large intestine cancer, and a sample for reaction prepared from this cell is designated sample for reaction HT29.
As a plate for ELISA, a glutathione-coated plate (Reacti-Bind Clear Glutathione Coated Plates, 8-well Strip (PIERCE)) was used. First, each well of the plate was washed with TBS-T (containing 25 mM Tris, 150 mM NaCl and 0.05% Tween 20) three times. Then, into each well was placed 50 μl of the substrate solution 1 containing the GST-poly (Glu, Tyr) substrate prepared in the 1 (TBS containing 5 μg/ml GST-poly (Glu, Tyr) substrate), and this was incubated at 25° C. for 1 hour while slightly shaken. After incubation, each well was washed with TBS-T two times. Further, each well was washed with 20 mM HEPES pH7.4 (containing 0.05% Tween 20) once. Like this, the GST-poly (Glu, Tyr) substrate was bound to a surface of a well of the plate for ELISA. This plate for ELISA was used in the following enzyme reaction.
First, 25 μl of the sample for reaction MB453 was dispensed into 6 tubes, respectively. Among 6 tubes, to the first tube was added 25 μl of a treating solution containing 400 μM (20 mM HEPES pH7.4, 20 mM MnCl2, 2 mM DTT, 1% NP40, 10% glycerol, 200 μM Na3VO4, 50 mM NaF, 400 μM ATP). To the second tube was added 25 μl of a treating solution containing 400 μM AG1478. To the third tube was added 25 μl of a treating solution containing 400 μM 4557W. To the fourth tube was added 25 μl of a treating solution containing 400 μM PDGF Receptor Tyrosine Kinase Inhibitor III. To the fifth tube was added 25 μl of a treating solution containing 400 μM VEGF Receptor Tyrosine Kinase Inhibitor III. To the sixth tube was added 25 μl of a treating solution containing no inhibitor. The thus obtained solutions are used as a reaction solution. Similarly, using the sample for reaction MB468, the sample for reaction SKBr3, the sample for reaction Hela and the sample for reaction HT29, samples for reaction were prepared. In order to suppress the enzyme activity of receptor tyrosine kinase, this working was performed under the condition of not higher than 4° C.
Fifty microliter of each reaction solution was placed into separate wells of the plate for ELISA, and this was incubated at 25° C. for about 30 minutes. After incubation, 100 μl of a reaction stopping solution (TBS-T containing 1 mM EDTA) was added to each well, followed by further washing with TBS-T three times. Then, each well was washed with 300 μl of StartingBlock T20 (TBS) Blocking Buffer (PIERCE). […]
(In general: An ELISA detects its analyte on a solid surface through an enzyme-linked reagent.)

A further test has as its system MDA-MB468 tumor. The test is described as follows: proliferation of tumor cell in a mouse body (tumor volume). The note with it: Comparative Example 2, FIG. 5; BALB/c nu/nu mouse with MDA-MB468 tumor; 30 mg/kg/day injected for 7 days; compared with DMSO. Format: in vivo. The method, then:
MDA-MB468 used in Example 1 was cultured in a culturing solution (DMEM-F12 (Sigma) containing 10% FBS (Hyclone)) so that it became 60% confluent in a 225 cm^2 flask. The resulting cultured cells were suspended to about 1×10^7 in 100 μl of DMEM-F12, to prepare a MDA-MB468 cell solution.
A fat pad of a 10-week old female mouse (BALB/c nu/nu) was injected with 100 μl of the MDA-MB468 cell solution. After 14 days, it was confirmed that a tumor became large in a mouse body. Like this, a tumor was formed in three mice bodies.
Fourteen days after injection with the MDA-MB468 cell solution, a mouse in which a tumor had been generated was injected with an inhibitor solution. Specifically, AG1478 used in Example 1 was dissolved in 100 μl of dimethyl sulfoxide (DMSO, Sigma) to prepare an inhibitor solution 1. And, the inhibitor solution 1 was injected into a mouse to a dose of the inhibitor of 30 mg/kg/day. […]
The day when the mouse was first injected with an inhibitor solution was regarded as the first day after injection. And, on the first day, the third day, the fifth day, and the eighth day after injection, a volume of a tumor in a mouse body was measured. As a volume of a tumor, a long diameter and a short diameter of a tumor were measured, and a volume was calculated from a long diameter and a short diameter on the assumption that a shape of a tumor was an elliptic sphere.

In the next test the test system is MDA-MB468. The test is described as follows: cell proliferation, CellTiter-Glo Luminescent Cell Viability Assay. The conditions noted are these: cultured 3 days. Format: cell-based. The method, then:
(§2) Cells were seeded on each well of a plate for culturing (96 Well Solid White Flat Bottom Polystyrene TC-Treated Microplates, Corning) at 1000 cells per well, and cultured at 37° C. for 24 hours. After culturing, an inhibitor was added to each well, and cells were further cultured at 37° C. for 3 days. As cells, five kinds of cultured cells used in Example 1 (MDA-MB453, MDA-MB468, SKBr3, Hela and HT29) were used. As the inhibitor, five kinds of inhibitors used in Example 1 (PD153035, AG1478, 4557W, PDGF Receptor Tyrosine Kinase Inhibitor III and VEGF Receptor Tyrosine Kinase Inhibitor III) were used. In Table 1, the final concentration is a concentration when the inhibitor is added to a well, and is mixed with cells.
(§3) For measuring cell proliferation, CellTiter-Glo Luminescent Cell Viability Assay (Promega) was used. This is a reagent kit which can quantitate ATP derived from a cell having the metabolism activity in a medium to measure a viable cell. First, according to a protocol attached to the kit, a measurement reagent was prepared. The measurement reagent was added at 100 μl per well, and a culturing plate was stirred with a shaker for 2 minutes. After stirring, the plate was allowed to stand for 10 minutes, and […] was measured using GENios (TECAN). Since […] is generated in proportion with an amount of ATP derived from a cell having the metabolism activity in a medium, a viable cell in a medium can be measured by measuring […].
(§4) Based on the measurement result, radar charts of FIG. 4 were produced. FIG. 4 contains a radar chart in the case of use of MDA-MB453, a radar chart in the case of use of MDA-MB468, a radar chart in the case of use of SKBr3, a radar chart in the case of use of Hela, and a radar chart in the case of use of HT29. These radar charts show a proportion of a measured value obtained by treating a cell with an inhibitor, letting a measured value when a cell was not treated with an inhibitor to be 100%. In radar charts, 1 is the case where a cell was treated with PD153035, 2 is the case where a cell was treated with AG1478, 3 is the case where a cell was treated with 4557W, 4 is the case where a cell was treated with PDGF Receptor Tyrosine Kinase Inhibitor III, and 5 is the case where a cell was treated with VEGF Receptor Tyrosine Kinase Inhibitor III.
Background: ATP-based viability assays read luminescence as a measure of living cells.

In a further test the test system is HT29. The description is as above. Format: cell-based. The note with it: Comparative Example 1, FIG. 4, final concentration 1 × 10^−5 M (Table 1), cultured 3 days. The method, then:
as §2, §3, §4

The test system of the next test is SKBr3. Described as above. The conditions noted are these: Comparative Example 1, FIG. 4, final concentration 1 × 10^−5 M (Table 1), cultured 3 days. Format: cell-based. The method, then: as §2, §3, §4
A further test has as its system MDA-MB453. The test is described as above. The note with it: Comparative Example 1, FIG. 4, final concentration 1 × 10^−5 M (Table 1), cultured 3 days. Format: cell-based. The method, then:
as §2, §3, §4

The subject of test [2] is receptor tyrosine kinase group derived from a cell membrane of SKBr3. The test is described as follows: activity of receptor tyrosine kinase group, sample for reaction SKBr3 (ELISA, GST-poly(Glu, Tyr) substrate). Format: biochemical. The conditions noted are these: Example 1, FIG. 3, treating solution containing 400 μM inhibitor, versus sample not treated = 100%. How it is done:
as §1, with “Hela is a cultured cell derived from a uterine cervical cancer, and a sample for reaction prepared from this cell is designated sample for reaction Hela. HT29 is a cultured cell derived from a large intestine cancer, and a sample for reaction prepared from this cell is designated sample for reaction HT29.” left out

Test [3] relates to receptor tyrosine kinase group derived from a cell membrane of MDA-MB453. Nature of the test: activity of receptor tyrosine kinase group, sample for reaction MB453 (ELISA, GST-poly(Glu, Tyr) substrate). Format: biochemical. The conditions noted are these: Example 1, FIG. 3, treating solution containing 400 μM inhibitor, versus sample not treated = 100%. The method, then: as §1, with “Hela is a cultured cell derived from a uterine cervical cancer, and a sample for reaction prepared from this cell is designated sample for reaction Hela. HT29 is a cultured cell derived from a large intestine cancer, and a sample for reaction prepared from this cell is designated sample for reaction HT29.” left out

Test [4] relates to receptor tyrosine kinase group derived from a cell membrane of HT29. The test is described as follows: activity of receptor tyrosine kinase group, sample for reaction HT29 (ELISA, GST-poly(Glu, Tyr) substrate). Format: biochemical. The conditions noted are these: Example 1, FIG. 3, treating solution containing 400 μM inhibitor, versus sample not treated = 100%. The method, then:
as §1, with “Hela is a cultured cell derived from a uterine cervical cancer, and a sample for reaction prepared from this cell is designated sample for reaction Hela. HT29 is a cultured cell derived from a large intestine cancer, and a sample for reaction prepared from this cell is designated sample for reaction HT29.” left out

Setting [5] is: Comparative Example 1, FIG. 4, final concentration 1 × 10^−6 M (Table 1).

In the case of `COc1cc2ncnc(N3CCN(C(=O)Nc4ccc(Oc5ccccc5)cc4)CC3)c2cc1OC`, in [1], the “effect of inhibiting the activity of a receptor tyrosine kinase group, inhibitor combined with 4557W” value is listed as “high activity inhibiting effect” and the “effect of inhibiting the activity of a receptor tyrosine kinase group, inhibitor alone” value (from here on “effect … inhibitor alone”) was “little effect”.
On to `CCCNC(=O)Nc1ccc(Oc2ncnc3cc(OC)c(OC)cc23)cc1Cl`, for which, in test [1], the “effect of inhibiting the activity of a receptor tyrosine kinase group, inhibitor combined with 4557W” value is reported as “high activity inhibiting effect” and the “effect … inhibitor alone” value is “little effect”.
For the compound `COc1cc2ncnc(Nc3ccc(OCc4ccccc4)cc3)c2cc1OC` [4557W], the “inhibition of proliferation of a tumor cell in a mouse body (change in volume of tumor)” value with MDA-MB468 tumor is recorded as “recognized”. Also, the “inhibition of the activity of the receptor tyrosine kinase group” value in test [1], in [2], in [3] and in test [4] was “inhibited” throughout. For the same compound, the “effect … inhibitor alone” value in [1] is “highest activity inhibiting effect”. The inhibition of proliferation entry with MDA-MB468 (Comparative Example 1, FIG. 4, final concentration 1 × 10^−5 M (Table 1)) is “recognized”; with HT29, “recognized”; in the test on SKBr3 it was “recognized”; with MDA-MB453 it was “recognized”.
With `COc1cc2ncnc(Nc3cccc(Cl)c3)c2cc1OC` [AG1478], the “inhibition of proliferation of a tumor cell in a mouse body (change in volume of tumor)” value in the test with MDA-MB468 tumor is recorded as “recognized”. The “inhibition of the activity of the receptor tyrosine kinase group” value in test [1] is on record as “inhibited”. In addition, the inhibition of proliferation entry in the test with MDA-MB468 (setting [5]) is recorded as “recognized”.
In the case of `COc1cc2ncnc(Nc3cccc(Br)c3)c2cc1OC` [PD153035], the “inhibition of the activity of the receptor tyrosine kinase group” value in test [1] is reported as “inhibited”. For the same compound, the inhibition of proliferation entry with MDA-MB468 (setting [5]) is on record as “recognized”.
